ChEMBL document CHEMBL1148105, “Bioactive metabolites from a marine-derived strain of the fungus Emericella variecolor” (2002)

Columns and labels:
Assay type in all cases: functional
Enterococcus faecalis = assay: Antimicrobial activity against Enterococcus faecalis
Bacillus subtilis = assay: Antimicrobial activity against Bacillus subtilis
Staphylococcus aureus = assay: Antimicrobial activity against Staphylococcus aureus
Escherichia coli = assay: Antimicrobial activity against Escherichia coli

Measured: MIC

C/C=C/C1=CC(=O)[C@@H](O)[C@@H]1O [TERREIN]
50 µg/mL: all assays above
